Source: paper PMC7385619, “A triple action CDK4/6-PI3K-BET inhibitor with augmented cancer cell cytotoxicity” (Cell Discovery, 2020)
Like-named read-outs stand apart in the source and are kept apart here.

How the values were obtained:
Test in all cases: KINOMEscan assay (Eurofins DiscoverX)
Format in all cases: binding
[1] = target: T1, kinome (kinase panel) (Homo sapiens, UniProt O00238); settings: BMPR1B; 1000 nM; read-out: Percent Control
T1 construct: purchased Eurofins DiscoverX

[2] = target: T2, kinome (kinase panel) (Homo sapiens, UniProt O14920); settings: IKK-beta (Entrez IKBKB); 1000 nM; read-out: Percent Control
T2 construct: purchased Eurofins DiscoverX

[3] = target: T3, kinome (kinase panel) (Homo sapiens, UniProt O94921); settings: PFTK1 (Entrez CDK14); 1000 nM; read-out: Percent Control
T3 construct: purchased Eurofins DiscoverX

[4] = target: T4, kinome (kinase panel) (Homo sapiens, UniProt O95382); settings: ASK2 (Entrez MAP3K6); 1000 nM; read-out: Percent Control
T4 construct: purchased Eurofins DiscoverX

[5] = target: T5, kinome (kinase panel) (Homo sapiens, UniProt P00533, DEL746-750); settings: EGFR(E746-A750del); 1000 nM; read-out: Percent Control
T5 construct: purchased Eurofins DiscoverX

[6] = target: T6, kinome (kinase panel) (Homo sapiens, UniProt P00533, DEL752-759); settings: EGFR(S752-I759del); 1000 nM; read-out: Percent Control
T6 construct: purchased Eurofins DiscoverX
T6 sequence (P00533 with tags, fused parts or gaps DEL752-759): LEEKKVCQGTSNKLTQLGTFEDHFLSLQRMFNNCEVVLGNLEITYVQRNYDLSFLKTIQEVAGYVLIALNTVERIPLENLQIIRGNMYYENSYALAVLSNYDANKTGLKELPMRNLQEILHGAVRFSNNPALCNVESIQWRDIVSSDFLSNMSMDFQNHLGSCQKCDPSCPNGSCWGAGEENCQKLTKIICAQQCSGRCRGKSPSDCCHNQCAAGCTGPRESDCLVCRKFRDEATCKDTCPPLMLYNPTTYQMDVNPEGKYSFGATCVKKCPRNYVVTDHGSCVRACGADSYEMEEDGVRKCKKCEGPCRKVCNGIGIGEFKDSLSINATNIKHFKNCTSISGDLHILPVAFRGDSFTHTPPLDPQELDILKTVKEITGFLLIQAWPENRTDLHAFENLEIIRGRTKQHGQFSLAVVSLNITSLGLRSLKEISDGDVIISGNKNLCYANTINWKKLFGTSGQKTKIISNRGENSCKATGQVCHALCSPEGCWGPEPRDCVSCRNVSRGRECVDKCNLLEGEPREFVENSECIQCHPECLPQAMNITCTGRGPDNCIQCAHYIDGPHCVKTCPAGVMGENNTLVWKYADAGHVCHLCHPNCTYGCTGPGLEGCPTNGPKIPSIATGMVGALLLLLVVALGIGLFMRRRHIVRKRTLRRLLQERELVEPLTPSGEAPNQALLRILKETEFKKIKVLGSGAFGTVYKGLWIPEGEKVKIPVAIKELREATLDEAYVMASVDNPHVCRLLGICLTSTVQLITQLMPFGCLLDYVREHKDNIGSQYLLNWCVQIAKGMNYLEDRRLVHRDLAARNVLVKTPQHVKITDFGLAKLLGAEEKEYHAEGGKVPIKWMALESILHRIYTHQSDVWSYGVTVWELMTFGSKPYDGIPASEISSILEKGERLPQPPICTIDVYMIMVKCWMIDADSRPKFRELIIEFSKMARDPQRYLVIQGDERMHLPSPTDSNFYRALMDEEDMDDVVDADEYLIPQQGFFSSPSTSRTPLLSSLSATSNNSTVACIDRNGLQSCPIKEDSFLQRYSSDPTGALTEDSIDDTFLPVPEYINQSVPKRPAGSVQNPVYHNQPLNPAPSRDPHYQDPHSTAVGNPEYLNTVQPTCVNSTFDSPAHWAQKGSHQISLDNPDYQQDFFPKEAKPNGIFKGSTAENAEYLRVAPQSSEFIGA

[7] = target: T7, kinome (kinase panel) (Homo sapiens, UniProt P00533, T790M); settings: […]; 1000 nM; read-out: Percent Control
T7 construct: purchased Eurofins DiscoverX
T7 sequence (P00533 25-1210 T790M): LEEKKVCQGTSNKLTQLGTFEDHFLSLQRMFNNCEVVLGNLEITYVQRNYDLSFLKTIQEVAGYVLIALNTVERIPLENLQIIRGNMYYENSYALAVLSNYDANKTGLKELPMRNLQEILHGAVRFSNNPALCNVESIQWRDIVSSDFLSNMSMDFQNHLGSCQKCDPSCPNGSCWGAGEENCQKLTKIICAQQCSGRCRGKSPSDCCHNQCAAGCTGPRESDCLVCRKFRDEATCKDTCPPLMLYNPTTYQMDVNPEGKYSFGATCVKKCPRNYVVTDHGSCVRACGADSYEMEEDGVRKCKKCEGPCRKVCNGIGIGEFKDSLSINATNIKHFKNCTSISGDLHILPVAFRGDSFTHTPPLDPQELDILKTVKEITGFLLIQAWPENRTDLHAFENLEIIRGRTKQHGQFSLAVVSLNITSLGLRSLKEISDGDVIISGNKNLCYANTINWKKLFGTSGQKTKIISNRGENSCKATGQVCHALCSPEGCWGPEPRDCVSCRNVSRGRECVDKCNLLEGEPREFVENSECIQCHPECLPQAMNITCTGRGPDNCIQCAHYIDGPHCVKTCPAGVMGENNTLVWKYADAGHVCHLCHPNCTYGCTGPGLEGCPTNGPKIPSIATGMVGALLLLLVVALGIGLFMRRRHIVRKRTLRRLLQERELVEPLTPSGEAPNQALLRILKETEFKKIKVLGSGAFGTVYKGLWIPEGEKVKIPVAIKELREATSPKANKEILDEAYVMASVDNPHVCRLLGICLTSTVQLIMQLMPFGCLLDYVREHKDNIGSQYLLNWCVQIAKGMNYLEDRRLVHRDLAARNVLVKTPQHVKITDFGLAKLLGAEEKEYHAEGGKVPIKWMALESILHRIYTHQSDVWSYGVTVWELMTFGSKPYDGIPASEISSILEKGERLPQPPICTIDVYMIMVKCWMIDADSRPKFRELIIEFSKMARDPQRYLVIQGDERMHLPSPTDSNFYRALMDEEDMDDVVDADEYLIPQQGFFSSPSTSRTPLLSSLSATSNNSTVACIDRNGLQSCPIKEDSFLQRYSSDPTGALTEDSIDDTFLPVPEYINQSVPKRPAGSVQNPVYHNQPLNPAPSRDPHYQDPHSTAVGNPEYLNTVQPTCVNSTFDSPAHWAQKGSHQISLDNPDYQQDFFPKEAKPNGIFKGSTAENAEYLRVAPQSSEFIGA

[8] = target: T8, kinome (kinase panel) (Homo sapiens, UniProt P09769); settings: FGR; 1000 nM; read-out: Percent Control
T8 construct: purchased Eurofins DiscoverX

[9] = target: T9, kinome (kinase panel) (Homo sapiens, UniProt P11802); settings: 1000 nM, read-out: Percent Control
T9 construct: purchased Eurofins DiscoverX
T9 sequence (P11802 whole entry): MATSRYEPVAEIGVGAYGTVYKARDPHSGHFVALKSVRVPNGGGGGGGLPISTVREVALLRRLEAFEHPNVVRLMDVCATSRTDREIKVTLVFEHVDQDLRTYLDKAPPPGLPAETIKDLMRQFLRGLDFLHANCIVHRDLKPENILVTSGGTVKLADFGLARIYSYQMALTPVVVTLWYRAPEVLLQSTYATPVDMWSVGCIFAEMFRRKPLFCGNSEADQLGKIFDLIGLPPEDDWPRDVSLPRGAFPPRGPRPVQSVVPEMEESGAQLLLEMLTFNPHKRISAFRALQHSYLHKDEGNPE

[10] = target: T10, kinome (kinase panel) (Homo sapiens, UniProt P15056); settings: BRAF; 1000 nM; read-out: Percent Control
T10 construct: purchased Eurofins DiscoverX

[11] = target: T11, kinome (kinase panel) (Homo sapiens, UniProt P23443); settings: S6K1 (RPS6KB1); 1000 nM; read-out: Percent Control
T11 construct: purchased Eurofins DiscoverX

[12] = target: T12, kinome (kinase panel) (Homo sapiens, UniProt P27037); settings: ACVR2A; 1000 nM; read-out: Percent Control
T12 construct: purchased Eurofins DiscoverX
T12 sequence (P27037 20-513): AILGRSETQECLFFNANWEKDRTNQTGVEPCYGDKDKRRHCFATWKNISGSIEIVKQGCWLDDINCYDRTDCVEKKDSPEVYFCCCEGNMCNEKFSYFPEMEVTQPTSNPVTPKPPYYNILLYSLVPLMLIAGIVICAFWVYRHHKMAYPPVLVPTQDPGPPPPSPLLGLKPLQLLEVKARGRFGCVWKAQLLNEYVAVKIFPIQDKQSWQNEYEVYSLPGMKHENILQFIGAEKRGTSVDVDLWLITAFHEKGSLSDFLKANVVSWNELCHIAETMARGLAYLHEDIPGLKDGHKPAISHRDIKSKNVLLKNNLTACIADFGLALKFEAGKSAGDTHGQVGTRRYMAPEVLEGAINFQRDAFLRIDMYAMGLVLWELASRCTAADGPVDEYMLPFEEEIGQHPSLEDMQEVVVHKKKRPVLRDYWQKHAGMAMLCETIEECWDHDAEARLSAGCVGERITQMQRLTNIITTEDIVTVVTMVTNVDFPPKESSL

[13] = target: T13, kinome (kinase panel) (Homo sapiens, UniProt P30291); settings: WEE1; 1000 nM; read-out: Percent Control
T13 construct: purchased Eurofins DiscoverX

[14] = target: T14, kinome (kinase panel) (Homo sapiens, UniProt P42336, E545K); settings: read-out: Percent Control
T14 construct: purchased Eurofins DiscoverX

[15] = target: T15, kinome (kinase panel) (Homo sapiens, UniProt P42345); settings: MTOR; 1000 nM; read-out: Percent Control
T15 construct: purchased Eurofins DiscoverX

[16] = target: T16, kinome (kinase panel) (Homo sapiens, UniProt P42679); settings: CTK (Entrez MATK); 1000 nM; read-out: Percent Control
T16 construct: purchased Eurofins DiscoverX

[17] = target: T17, kinome (kinase panel) (Homo sapiens, UniProt P42684); settings: ABL2; 1000 nM; read-out: Percent Control
T17 construct: purchased Eurofins DiscoverX

[18] = target: T18, kinome (kinase panel) (Homo sapiens, UniProt P49674); settings: CSNK1E; 1000 nM; read-out: Percent Control
T18 construct: purchased Eurofins DiscoverX
T18 sequence (P49674 whole entry): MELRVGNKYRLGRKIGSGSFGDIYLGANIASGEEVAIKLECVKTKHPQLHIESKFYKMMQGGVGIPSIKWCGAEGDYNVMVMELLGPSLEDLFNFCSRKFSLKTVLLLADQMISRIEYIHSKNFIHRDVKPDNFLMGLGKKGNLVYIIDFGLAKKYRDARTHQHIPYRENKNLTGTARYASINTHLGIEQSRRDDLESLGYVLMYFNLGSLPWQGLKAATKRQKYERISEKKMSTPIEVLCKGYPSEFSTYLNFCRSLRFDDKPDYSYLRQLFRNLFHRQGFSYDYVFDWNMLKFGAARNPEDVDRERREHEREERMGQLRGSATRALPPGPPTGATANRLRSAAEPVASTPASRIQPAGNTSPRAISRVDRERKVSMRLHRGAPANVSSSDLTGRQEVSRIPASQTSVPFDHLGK

[19] = target: T19, kinome (kinase panel) (Homo sapiens, UniProt P49841); settings: GSK3B; 1000 nM; read-out: Percent Control
T19 construct: purchased Eurofins DiscoverX

[20] = target: T20, kinome (kinase panel) (Homo sapiens, UniProt P54753); settings: EPHB3; 1000 nM; read-out: Percent Control
T20 construct: purchased Eurofins DiscoverX

[21] = target: T21, kinome (kinase panel) (Homo sapiens, UniProt P57078); settings: RIPK4; 1000 nM; read-out: Percent Control
T21 construct: purchased Eurofins DiscoverX

[22] = target: T22, kinome (kinase panel) (Homo sapiens, UniProt Q13627); settings: DYRK1A; 1000 nM; read-out: Percent Control
T22 construct: purchased Eurofins DiscoverX

[23] = target: T23, kinome (kinase panel) (Homo sapiens, UniProt Q14004); settings: CDC2L5 (Entrez CDK13); 1000 nM; read-out: Percent Control
T23 construct: purchased Eurofins DiscoverX

[24] = target: T24, kinome (kinase panel) (Homo sapiens, UniProt Q15569); settings: TESK1; 1000 nM; read-out: Percent Control
T24 construct: purchased Eurofins DiscoverX

[25] = target: T25, kinome (kinase panel) (Homo sapiens, UniProt Q5S007); settings: LRRK2; 1000 nM; read-out: Percent Control
T25 construct: purchased Eurofins DiscoverX

[26] = target: T26, kinome (kinase panel) (Homo sapiens, UniProt Q8NEV4); settings: MYO3A; 1000 nM; read-out: Percent Control
T26 construct: purchased Eurofins DiscoverX

[27] = target: T27, kinome (kinase panel) (Homo sapiens, UniProt Q8TDC3); settings: BRSK1; 1000 nM; read-out: Percent Control
T27 construct: purchased Eurofins DiscoverX
T27 sequence (Q8TDC3 whole entry): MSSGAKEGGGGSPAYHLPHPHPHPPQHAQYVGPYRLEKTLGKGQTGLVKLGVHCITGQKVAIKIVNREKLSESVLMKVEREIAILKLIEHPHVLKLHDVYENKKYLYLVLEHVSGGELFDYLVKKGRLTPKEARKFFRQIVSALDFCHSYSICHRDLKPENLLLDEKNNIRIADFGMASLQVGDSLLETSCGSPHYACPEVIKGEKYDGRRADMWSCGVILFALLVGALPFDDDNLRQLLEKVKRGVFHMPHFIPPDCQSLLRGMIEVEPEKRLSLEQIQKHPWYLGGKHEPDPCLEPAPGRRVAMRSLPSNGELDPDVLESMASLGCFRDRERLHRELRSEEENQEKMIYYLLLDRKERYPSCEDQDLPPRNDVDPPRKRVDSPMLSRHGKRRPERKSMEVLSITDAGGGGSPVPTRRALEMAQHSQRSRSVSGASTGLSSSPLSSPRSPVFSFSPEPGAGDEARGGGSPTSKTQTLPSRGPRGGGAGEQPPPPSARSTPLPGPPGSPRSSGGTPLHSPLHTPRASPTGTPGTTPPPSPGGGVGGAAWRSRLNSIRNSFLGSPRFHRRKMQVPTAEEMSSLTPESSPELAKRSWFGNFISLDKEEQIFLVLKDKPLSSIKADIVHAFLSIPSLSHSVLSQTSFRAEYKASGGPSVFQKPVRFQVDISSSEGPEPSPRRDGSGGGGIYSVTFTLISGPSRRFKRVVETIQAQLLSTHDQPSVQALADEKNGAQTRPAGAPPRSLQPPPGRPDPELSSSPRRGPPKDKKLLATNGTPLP

[28] = target: T28, kinome (kinase panel) (Homo sapiens, UniProt Q99640); settings: PKMYT1; 1000 nM; read-out: Percent Control
T28 construct: purchased Eurofins DiscoverX
T28 sequence (Q99640 whole entry): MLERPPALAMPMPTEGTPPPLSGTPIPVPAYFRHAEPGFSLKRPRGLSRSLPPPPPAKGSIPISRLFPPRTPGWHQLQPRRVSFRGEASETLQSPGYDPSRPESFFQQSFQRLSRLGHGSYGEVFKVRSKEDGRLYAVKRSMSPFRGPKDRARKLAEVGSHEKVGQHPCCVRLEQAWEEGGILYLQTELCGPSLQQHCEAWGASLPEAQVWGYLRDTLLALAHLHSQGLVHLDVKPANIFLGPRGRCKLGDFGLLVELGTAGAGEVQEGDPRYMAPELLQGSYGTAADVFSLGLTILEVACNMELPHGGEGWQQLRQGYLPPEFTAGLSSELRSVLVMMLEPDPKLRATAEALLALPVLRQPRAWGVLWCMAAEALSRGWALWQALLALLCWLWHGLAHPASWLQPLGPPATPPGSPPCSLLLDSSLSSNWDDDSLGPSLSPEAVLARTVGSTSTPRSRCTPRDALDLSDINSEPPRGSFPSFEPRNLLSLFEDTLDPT

[29] = target: T29, kinome (kinase panel) (Homo sapiens, UniProt Q9NYL2); settings: ZAK; 1000 nM; read-out: Percent Control
T29 construct: purchased Eurofins DiscoverX

[30] = target: T30, kinome (kinase panel) (Homo sapiens, UniProt Q9Y2H9); settings: MAST1; 1000 nM; read-out: Percent Control
T30 construct: purchased Eurofins DiscoverX

[31] = tested on: kinome (kinase panel); settings: for Percent Control: 1000 nM

CN(C)C(=O)c1cc2cnc(Nc3ccc(-c4csc5c(=O)cc(N6CCOCC6)oc45)cc3)nc2n1C1CCCC1 [SRX3177]
remaining binding at 1 µM [1]: 19% | remaining binding at 1 µM [2]: 71% | remaining binding at 1 µM [3]: 73% | remaining binding at 1 µM [4]: 91% | remaining binding at 1 µM [5]: 72% | remaining binding at 1 µM [6]: 100% | remaining binding at 1 µM [7]: 46% | remaining binding at 1 µM [8]: 97% | remaining binding at 1 µM ([9]; CDK4-cyclinD1): 0.9% | remaining binding at 1 µM ([9]; CDK4-cyclinD3): 1.1% | remaining binding at 1 µM ([9]; CDK4): 18% | remaining binding at 1 µM [10]: 79% | remaining binding at 1 µM [11]: 95% | remaining binding at 1 µM [12]: 99% | remaining binding at 1 µM [13]: 99% | remaining binding at 1 µM [14]: 45% | remaining binding at 1 µM [15]: 79% | remaining binding at 1 µM [16]: 94% | remaining binding at 1 µM [17]: 81% | remaining binding at 1 µM [18]: 63% | remaining binding at 1 µM [19]: 75% | remaining binding at 1 µM [20]: 97% | remaining binding at 1 µM [21]: 58% | remaining binding at 1 µM [22]: 60% | remaining binding at 1 µM [23]: 4.1% | remaining binding at 1 µM [24]: 87% | remaining binding at 1 µM [25]: 34% | remaining binding at 1 µM [26]: 97% | remaining binding at 1 µM [27]: 100% | remaining binding at 1 µM [28]: 88% | remaining binding at 1 µM [29]: 80% | remaining binding at 1 µM [30]: 53% | specificity in KINOMEscan [31]: lack of off-targeting | Percent Control ([31]; EGFR(L747-E749del, A750P)): 100 | Percent Control ([31]; EGFR(L747-S752del, P753S)): 65 | Percent Control ([31]; EGFR(L747-T751del,Sins)): 75 | Percent Control ([31]; FLT3(ITD)): 49 | Percent Control ([31]; FLT3(ITD,D835V)): 27 | Percent Control ([31]; FLT3(ITD,F691L)): 45
